{"source": "patent US20100087516A1", "about": "“ANTIBACTERIAL MACROLACTIN A THAT BACILLUS POLYFERMENTICUS KJS-2 PRODUCED IN” (priority 2007, published 2010)", "type_in_all_cases": "cell-based", "key": {"[1]": {"system": "a variety of microorganisms and fungi", "assay": "Spectrum of antibiotic activity (general statement)"}, "Vibrio vulnificus": {"system": "Vibrio vulnificus", "assay": "Bioassay of Macrolactin A on TSB agar medium", "conditions": "10 μl of solution in 50% acetone (2.5 mg/ml)", "description": "(§1) The strains used for the experiment were Saccharomyces cerevisiae, Vibrio vulnificus, Micrococcus luteus and Streptococcus parauberis. Each strain, except Vibrio vulnificus, was inoculated and cultured in TSB medium at 200 rpm for 16 hours at 37° C., and then a 0.5 ml (approximately 28*10^9 cfu/ml) aliquot of the culture medium was spread over TSB agar medium. Vibrio vulnificus, was inoculated and cultured in TSB medium at 200 rpm for 16 hours at 25° C., which is its optimum growth conation, and then the amount of the culture medium was spread over the agar medium. The solvent required for the bioassay is a solvent, which can dissolve Macrolactin A, that has no toxicity against the strains used for the experiment."}, "Saccharomyces cerevisiae": {"system": "Saccharomyces cerevisiae", "assay": "Bioassay of Macrolactin A on TSB agar medium", "conditions": "10 μl of solution in 50% acetone (2.5 mg/ml)", "description": "as §1"}, "Micrococcus luteus": {"system": "Micrococcus luteus", "assay": "Bioassay of Macrolactin A on TSB agar medium", "conditions": "10 μl of solution in 50% acetone (2.5 mg/ml)", "description": "as §1"}, "Streptococcus parauberis": {"system": "Streptococcus parauberis", "assay": "Bioassay of Macrolactin A on TSB agar medium", "conditions": "10 μl of solution in 50% acetone (2.5 mg/ml)", "description": "as §1"}}}
{"smiles": "CC1CCC/C=C/C=C/C(O)CC(O)C/C=C\\C=C\\C(O)C/C=C/C=C\\C(=O)O1", "note": "(centres unmarked) [Macrolactin A]", "values": [{"measurement": "spectrum of antibiotic activity", "setting": "[1]", "value": "broad spectrum of antibiotic activity"}, {"measurement": "antibiotic activity against Vibrio vulnificus", "setting": "Vibrio vulnificus", "value": "excellent antibiotic activity"}, {"measurement": "antibiotic activity against Saccharomyces cerevisiae", "setting": "Saccharomyces cerevisiae", "value": "excellent antibiotic activity"}, {"measurement": "antibiotic activity against Micrococcus luteus", "setting": "Micrococcus luteus", "value": "excellent antibiotic activity"}, {"measurement": "antibiotic activity against Streptococcus parauberis", "setting": "Streptococcus parauberis", "value": "excellent antibiotic activity"}]}
